Reference: patent publication US11541028B2, “Peptide pharmaceuticals for treatment of NASH and other disorders” (Mederis Diabetes LLC, priority 2018, dated 2023)
Bridge positions count the residues as written; N and C are the ends. Square brackets hold non-standard residues; d marks the D form. Peptide text beside a SMILES is read from it. * marks the point of attachment. X1 = CCCCCCCCCCCCCCCCO[C@@H]1O[C@H](CO[C@H]2O[C@H](C(=O)*)[C@H](O)[C@H](O)[C@H]2O)[C@@H](O)[C@H](O)[C@H]1O; X2 = CCCCCCCCCCCCCCO[C@@H]1O[C@H](CO[C@H]2O[C@H](C(=O)*)[C@H](O)[C@H](O)[C@H]2O)[C@@H](O)[C@H](O)[C@H]1O; βGlcA(1-O-hexadecyl) = CCCCCCCCCCCCCCCCO[C@@H]1O[C@H](C(=O)*)[C@@H](O)[C@H](O)[C@H]1O; Aib = CC(C)(N)C(=O)O

Tests used:
human glucagon receptor = biological target: T1, human glucagon receptor (Homo sapiens, UniProt P47871); experiment: DiscoveRx LeadHunter cellular assay, cAMP stimulation, glucagon receptor in CHO cells; type: cell-based
T1 construct: host or cells: CHO cells

human GLP-1 receptor = biological target: T2, human GLP-1 receptor (Homo sapiens, UniProt P43220); experiment: DiscoveRx LeadHunter cellular assay, cAMP stimulation, GLP-1 receptor in CHO cells; type: cell-based; conditions: human GLP-1 receptor in CHO cells (DiscoveRx); read-out: EC50 cAMP GLP-1 R
T2 construct: host or cells: CHO cells
T2 sequence (P43220 24-463): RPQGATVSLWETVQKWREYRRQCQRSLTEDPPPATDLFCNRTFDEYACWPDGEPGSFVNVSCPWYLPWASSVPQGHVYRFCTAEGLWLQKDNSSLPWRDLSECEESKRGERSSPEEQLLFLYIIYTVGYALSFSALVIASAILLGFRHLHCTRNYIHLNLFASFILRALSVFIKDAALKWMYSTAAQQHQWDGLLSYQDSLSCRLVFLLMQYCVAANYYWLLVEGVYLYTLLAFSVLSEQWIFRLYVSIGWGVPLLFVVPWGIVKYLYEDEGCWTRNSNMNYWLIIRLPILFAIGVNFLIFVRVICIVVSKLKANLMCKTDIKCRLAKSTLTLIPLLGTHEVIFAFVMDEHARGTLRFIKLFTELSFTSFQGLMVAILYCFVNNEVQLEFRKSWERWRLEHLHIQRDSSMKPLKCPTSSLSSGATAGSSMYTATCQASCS

T1 sequence (P47871 26-477): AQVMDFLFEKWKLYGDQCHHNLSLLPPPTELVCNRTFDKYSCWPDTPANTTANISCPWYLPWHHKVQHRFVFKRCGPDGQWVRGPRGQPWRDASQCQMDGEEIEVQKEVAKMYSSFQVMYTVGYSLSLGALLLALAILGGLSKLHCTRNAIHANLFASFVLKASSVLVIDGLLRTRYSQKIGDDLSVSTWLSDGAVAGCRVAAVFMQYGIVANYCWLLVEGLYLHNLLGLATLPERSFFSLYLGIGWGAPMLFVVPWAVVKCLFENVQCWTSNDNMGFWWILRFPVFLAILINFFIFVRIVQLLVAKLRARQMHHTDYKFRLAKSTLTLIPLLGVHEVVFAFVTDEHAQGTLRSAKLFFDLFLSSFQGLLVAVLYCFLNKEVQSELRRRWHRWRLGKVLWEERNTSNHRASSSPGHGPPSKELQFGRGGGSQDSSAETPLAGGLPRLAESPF

| EC50 (human glucagon receptor) | EC50 (human GLP-1 receptor) | Compound |
| --- | --- | --- |
| 0.931 nM | 0.008 nM | CCCCCCCCCCCCCCCCO[C@@H]1O[C@H](C(=O)NCCCC[C@H](NC(=O)[C@H](C)NC(=O)[C@H](C)NC(=O)[C@H](CCC(N)=O)NC(=O)[C@H](CO)NC(=O)[C@H](CC(=O)O)NC(=O)[C@@H]2CCCCNC(=O)CC[C@H](NC(=O)[C@H](CC(=O)O)NC(=O)[C@H](CO)NC(=O)[C@@H](NC(=O)[C@H](Cc3ccccc3)NC(=O)[C@@H](NC(=O)CNC(=O)[C@H](CCC(N)=O)NC(=O)C(C)(C)NC(=O)[C@@H](N)Cc3c[nH]cn3)[C@@H](C)O)[C@@H](C)O)C(=O)N[C@@H](CO)C(=O)N[C@@H](CCCCN)C(=O)N[C@@H](Cc3ccc(O)cc3)C(=O)N2)C(=O)N[C@@H](CCC(=O)O)C(=O)N[C@@H](Cc2ccccc2)C(=O)N[C@H](C(=O)N[C@@H](CCC(N)=O)C(=O)N[C@@H](Cc2c[nH]c3ccccc23)C(=O)N[C@@H](CC(C)C)C(=O)N[C@@H](CC(C)C)C(=O)N[C@@H](CCC(N)=O)C(=O)N[C@H](C(N)=O)[C@@H](C)O)[C@@H](C)CC)[C@@H](O)[C@H](O)[C@H]1O [EU-A1735] (H-H[Aib]QGTFTSDESKYKDSQAAK(βGlcA(1-O-hexadecyl))EFIQWLLQT-NH2; lactam 10-14; N-terminus assumed) |
| 2.22 nM | 0.056 nM | CCCCCCCCCCCCCCO[C@@H]1O[C@H](CO[C@H]2O[C@H](C(=O)NCCCC[C@H](NC(=O)[C@H](C)NC(=O)[C@H](C)NC(=O)[C@H](CCC(N)=O)NC(=O)[C@@H]3CCCCNC(=O)CC[C@H](NC(=O)[C@H](CO)NC(=O)[C@H](Cc4ccc(O)cc4)NC(=O)[C@H](CC(=O)O)NC(=O)[C@H](CO)NC(=O)[C@@H](NC(=O)[C@H](Cc4ccccc4)NC(=O)[C@@H](NC(=O)CNC(=O)[C@H](CCC(N)=O)NC(=O)C(C)(C)NC(=O)[C@@H](N)Cc4c[nH]cn4)[C@@H](C)O)[C@@H](C)O)C(=O)N[C@@H](Cc4ccc(O)cc4)C(=O)N[C@@H](CC(C)C)C(=O)N[C@@H](CC(=O)O)C(=O)N3)C(=O)N[C@@H](CCC(=O)O)C(=O)N[C@@H](Cc3ccccc3)C(=O)N[C@H](C(=O)N[C@@H](CCC(N)=O)C(=O)N[C@@H](Cc3c[nH]c4ccccc34)C(=O)N[C@@H](CC(C)C)C(=O)N[C@@H](CC(C)C)C(=O)N[C@@H](CCC(N)=O)C(=O)N[C@H](C(N)=O)[C@@H](C)O)[C@@H](C)CC)[C@H](O)[C@H](O)[C@H]2O)[C@@H](O)[C@H](O)[C@H]1O [EU-A1739] (H-H[Aib]QGTFTSDYSEYLDKQAAK(X2)EFIQWLLQT-NH2; lactam 12-16; N-terminus assumed) |
| 3.82 nM | 0.077 nM | CCCCCCCCCCCCCCCCO[C@@H]1O[C@H](CO[C@H]2O[C@H](C(=O)NCCCC[C@H](NC(=O)[C@H](C)NC(=O)[C@H](C)NC(=O)[C@H](CCC(N)=O)NC(=O)[C@@H]3CCCCNC(=O)CC[C@H](NC(=O)[C@H](CO)NC(=O)[C@H](Cc4ccc(O)cc4)NC(=O)[C@H](CC(=O)O)NC(=O)[C@H](CO)NC(=O)[C@@H](NC(=O)[C@H](Cc4ccccc4)NC(=O)[C@@H](NC(=O)CNC(=O)[C@H](CCC(N)=O)NC(=O)C(C)(C)NC(=O)[C@@H](N)Cc4c[nH]cn4)[C@@H](C)O)[C@@H](C)O)C(=O)N[C@@H](Cc4ccc(O)cc4)C(=O)N[C@@H](CC(C)C)C(=O)N[C@@H](CC(=O)O)C(=O)N3)C(=O)N[C@@H](CCC(=O)O)C(=O)N[C@@H](Cc3ccccc3)C(=O)N[C@H](C(=O)N[C@@H](CCC(N)=O)C(=O)N[C@@H](Cc3c[nH]c4ccccc34)C(=O)N[C@@H](CC(C)C)C(=O)N[C@@H](CC(C)C)C(=O)N[C@@H](CCC(N)=O)C(=O)N[C@H](C(N)=O)[C@@H](C)O)[C@@H](C)CC)[C@H](O)[C@H](O)[C@H]2O)[C@@H](O)[C@H](O)[C@H]1O [EU-A1740] (H-H[Aib]QGTFTSDYSEYLDKQAAK(X1)EFIQWLLQT-NH2; lactam 12-16; N-terminus assumed) |
